Values joined by “and” are separate entries in the source; they are usually repeats but may differ in a detail not shown here. Equal entries are not always repeated.
What was measured:
[1] = 298.15 K; 101.33 kPa; Liquid
[2] = excess molar enthalpy (molar enthalpy of mixing); xn = mol fraction of the nth substance listed; conditions: 298.15 K, 101 kPa, Liquid, Flow calorimetry

CCCOCCC [dipropyl ether]
Conditions | mass density [kg/m3]
[1] | 741.997

CCCOCCC [dipropyl ether] + C1CCOC1
[2]
Conditions | excess molar enthalpy
x1 = 0.05 | 0.0125 kcal/mol
x1 = 0.1 | 0.0232 kcal/mol
x1 = 0.1501 | 0.0325 kcal/mol
x1 = 0.2 | 0.0402 kcal/mol
x1 = 0.2498 | 0.0468 kcal/mol
x1 = 0.2998 | 0.0518 kcal/mol
x1 = 0.3503 | 0.0556 kcal/mol
x1 = 0.3998 | 0.058 kcal/mol
x1 = 0.45 | 0.0591 kcal/mol
x1 = 0.4998 | 0.0594 kcal/mol and 0.0593 kcal/mol
x1 = 0.5499 | 0.0585 kcal/mol
x1 = 0.5999 | 0.0565 kcal/mol
x1 = 0.6502 | 0.0535 kcal/mol
x1 = 0.7003 | 0.0493 kcal/mol
x1 = 0.7499 | 0.0441 kcal/mol
x1 = 0.7999 | 0.0381 kcal/mol
x1 = 0.85 | 0.0305 kcal/mol
x1 = 0.9 | 0.0216 kcal/mol
x1 = 0.95 | 0.0115 kcal/mol

CCCOCCC [dipropyl ether] + C=CCCCC
[2]
Conditions | excess molar enthalpy [kcal/mol]
x1 = 0.0529 | 0.00158
x1 = 0.1001 | 0.00289
x1 = 0.15 | 0.00394
x1 = 0.2001 | 0.0048
x1 = 0.25 | 0.00545
x1 = 0.3002 | 0.00595
x1 = 0.3499 | 0.00632
x1 = 0.4001 | 0.00654
x1 = 0.4501 | 0.00671
x1 = 0.5001 | 0.00669
x1 = 0.55 | 0.00661
x1 = 0.5998 | 0.00641
x1 = 0.6499 | 0.00609
x1 = 0.6996 | 0.0057
x1 = 0.75 | 0.00515
x1 = 0.8003 | 0.0045
x1 = 0.85 | 0.00368
x1 = 0.9 | 0.00271
x1 = 0.95 | 0.00146

CCCOCCC [dipropyl ether] + CCCCOCCCC
[2]
Conditions | excess molar enthalpy [kcal/mol]
x1 = 0.05 | 0.000533
x1 = 0.1 | 0.00102
x1 = 0.15 | 0.0014
x1 = 0.2001 | 0.00175
x1 = 0.25 | 0.00205
x1 = 0.3 | 0.00229
x1 = 0.35 | 0.00246
x1 = 0.3998 | 0.00261
x1 = 0.4497 | 0.00275
x1 = 0.4998 | 0.00283
x1 = 0.5004 | 0.00283
x1 = 0.55 | 0.00284
x1 = 0.6001 | 0.00281
x1 = 0.65 | 0.00271
x1 = 0.6999 | 0.00253
x1 = 0.75 | 0.00228
x1 = 0.8 | 0.00196
x1 = 0.8503 | 0.00159
x1 = 0.9 | 0.00111
x1 = 0.95 | 0.000612

C=CCCCC [hex-1-ene]
Conditions | mass density [kg/m3]
[1] | 668.762

C1CCOC1 [tetrahydrofuran]
Conditions | mass density [kg/m3]
[1] | 882.078
